Data: PMC6315173, “Characterization of the Apelin/Elabela Receptors (APLNR) in Chickens, Turtles, and Zebrafish: Identification of a Novel Apelin-Specific Receptor in Teleosts” (Frontiers in Endocrinology, 2018)
Like-named read-outs stand apart in the source and are kept apart here. Positions of bridges follow the written chain, without caps; N, C: chain ends. Residues, ends and D or L forms follow the SMILES beside them. No end group written: not given here.

Columns and labels:
human APLNR (hAPLNR1) = biological target: T1, human APLNR (hAPLNR1) (Homo sapiens, UniProt P35414); experiment: pGL3-CRE-luciferase reporter assay, HEK293 cells expressing human APLNR; type: cell-based; conditions: SEM; read-out: EC50 (nM) hAPLNR
T1 construct: human APLNR ORF was also amplified by PCR and cloned into pcDNA3.1 (+) expression vector; expressed in transfected cells; host or cells: HEK293
T1 sequence (P35414 1-380): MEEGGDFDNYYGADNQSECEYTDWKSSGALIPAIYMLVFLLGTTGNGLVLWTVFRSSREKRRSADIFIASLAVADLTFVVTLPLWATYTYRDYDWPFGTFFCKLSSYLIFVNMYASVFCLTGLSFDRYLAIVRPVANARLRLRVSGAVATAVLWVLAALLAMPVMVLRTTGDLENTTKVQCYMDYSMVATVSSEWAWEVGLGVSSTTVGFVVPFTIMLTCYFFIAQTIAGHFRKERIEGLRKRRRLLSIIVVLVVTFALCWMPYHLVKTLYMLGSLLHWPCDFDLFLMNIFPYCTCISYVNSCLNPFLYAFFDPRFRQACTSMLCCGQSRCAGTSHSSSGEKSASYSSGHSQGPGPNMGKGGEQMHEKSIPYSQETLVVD
Description: In brief, HEK293 cells were cultured on a six-well plate and grown for 24 h before transfection. The cells were then transfected with a mixture containing 700 ng pGL3-CRE-Luciferase reporter construct (or pGL4-SRE-Luciferase reporter construct), 200 ng of receptor expression plasmid [or empty pcDNA3.1(+) vector as a negative control], and 2 μl jetPRIME (Polyplus Transfection, Illkirch, France) in 200 μl buffer. Twenty-four hour later, HEK293 cells were sub-cultured into a 96-well plate at 37°C for an additional 24 h before treatment. After removal of medium from the 96-well plate, the cells were treated with 100 μl peptide-containing medium (or peptide-free medium) for 6 h in the presence or absence of forskolin (5 μM). […] The luciferase activity in each treatment group was expressed as the relative fold changes as compared with their respective control groups. The data were analyzed by non-linear regression followed by one-way ANOVA using GraphPad Prism 5 (GraphPad, San Diego, CA, USA). To validate the results, all experiments were repeated at least twice.

[1] = biological target: T2, zebrafish APLNR2b (zfAPLNR2b) (Danio rerio, UniProt A0T2N3); experiment: pGL3-CRE-luciferase reporter assay, HEK293 cells expressing zebrafish APLNR2b; type: cell-based
T2 construct: the open reading frame (ORF) of each APLNR was amplified from the animal; expressed in transfected cells; host or cells: HEK293
T2 sequence (A0T2N3 1-359): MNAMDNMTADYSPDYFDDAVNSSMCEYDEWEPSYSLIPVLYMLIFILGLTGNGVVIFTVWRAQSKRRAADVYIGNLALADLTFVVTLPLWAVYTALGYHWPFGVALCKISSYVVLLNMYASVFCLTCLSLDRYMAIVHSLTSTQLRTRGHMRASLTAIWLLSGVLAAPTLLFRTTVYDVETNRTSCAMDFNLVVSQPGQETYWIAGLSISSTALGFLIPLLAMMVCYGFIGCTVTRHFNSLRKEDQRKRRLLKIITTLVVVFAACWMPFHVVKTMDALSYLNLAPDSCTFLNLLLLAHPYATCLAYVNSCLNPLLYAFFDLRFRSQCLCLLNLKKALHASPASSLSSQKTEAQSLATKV
Description: (§1) In brief, HEK293 cells were cultured on a six-well plate and grown for 24 h before transfection. The cells were then transfected with a mixture containing 700 ng pGL3-CRE-Luciferase reporter construct (or pGL4-SRE-Luciferase reporter construct), 200 ng of receptor expression plasmid [or empty pcDNA3.1(+) vector as a negative control], and 2 μl jetPRIME (Polyplus Transfection, Illkirch, France) in 200 μl buffer. Twenty-four hour later, HEK293 cells were sub-cultured into a 96-well plate at 37°C for an additional 24 h before treatment. After removal of medium from the 96-well plate, the cells were treated with 100 μl peptide-containing medium (or peptide-free medium) for 6 h in the presence or absence of forskolin (5 μM). Finally, HEK293 cells were lysed with 1 × passive lysis buffer for luciferase assay (Promega, Madison, WI, USA) and the luciferase activity of the cell lysate was measured by a Multimode microplate Reader (TriStar LB 941, EG&G Berthold, Germany) according to the manufacturer's instruction.
(§2) The luciferase activity in each treatment group was expressed as the relative fold changes as compared with their respective control groups. The data were analyzed by non-linear regression followed by one-way ANOVA using GraphPad Prism 5 (GraphPad, San Diego, CA, USA). To validate the results, all experiments were repeated at least twice.

[2] = biological target: T3, zebrafish APLNR2a (zfAPLNR2a) (Danio rerio, UniProt Q7SZP9); experiment: pGL3-CRE-luciferase reporter assay, HEK293 cells expressing zebrafish APLNR2a; type: cell-based
T3 construct: the open reading frame (ORF) of each APLNR was amplified from the animal; expressed in transfected cells; host or cells: HEK293
T3 sequence (Q7SZP9 1-362): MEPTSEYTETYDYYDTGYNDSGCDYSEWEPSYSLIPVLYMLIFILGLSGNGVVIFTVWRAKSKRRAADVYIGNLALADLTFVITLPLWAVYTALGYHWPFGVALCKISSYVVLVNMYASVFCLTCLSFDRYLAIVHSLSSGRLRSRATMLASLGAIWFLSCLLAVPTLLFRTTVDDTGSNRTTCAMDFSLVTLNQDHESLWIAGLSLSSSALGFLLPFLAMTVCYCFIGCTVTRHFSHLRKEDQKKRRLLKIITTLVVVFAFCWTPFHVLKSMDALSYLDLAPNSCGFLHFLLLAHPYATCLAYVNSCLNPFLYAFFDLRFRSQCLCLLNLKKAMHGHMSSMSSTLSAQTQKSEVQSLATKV
Description: as §1, §2

[3] = tested on: tilapia APLNR3b (tiAPLNR3b); experiment: pGL3-CRE-luciferase reporter assay, HEK293 cells expressing tilapia APLNR3b; type: cell-based, Nile tilapia (Oreochromis niloticus); conditions: HEK293 cells transiently expressing tiAPLNR3b; inhibition of forskolin (5 μM)-stimulated pGL3-CRE-luciferase activity; 6 h; mean ± S.E. of 3 independent experiments; N = EC50 cannot be evaluated
Description: as §1, §2

[4] = tested on: zebrafish APLNR3a (zfAPLNR3a); experiment: pGL3-CRE-luciferase reporter assay, HEK293 cells expressing zebrafish APLNR3a; type: cell-based, zebrafish (Danio rerio); conditions: HEK293 cells transiently expressing zfAPLNR3a; inhibition of forskolin (5 μM)-stimulated pGL3-CRE-luciferase activity; 6 h; mean ± S.E. of 3 independent experiments; N = EC50 cannot be evaluated
Description: as §1, §2

| Compound | EC50 (human APLNR (hAPLNR1)) | EC50 ([1]; SEM) | EC50 ([2]; SEM) | EC50 [1] | EC50 [2] | EC50 [3] | EC50 [4] |
| --- | --- | --- | --- | --- | --- | --- | --- |
| CSCC[C@H](NC(=O)[C@@H]1CCCN1C(=O)CNC(=O)[C@H](CCCCN)NC(=O)[C@H](Cc1c[nH]cn1)NC(=O)[C@H](CO)NC(=O)[C@H](CC(C)C)NC(=O)[C@H](CCCNC(=N)N)NC(=O)[C@@H]1CCCN1C(=O)[C@H](CCCNC(=N)N)NC(=O)[C@@H]1CCCN1)C(=O)N1CCC[C@H]1C(=O)N[C@@H](Cc1ccccc1)C(=O)O [cApelin-13] | 0.55 ± 0.21 nM | 12.7 ± 5.21 nM | 2.82 ± 1.18 nM | – | – | – | – |
| CSCC[C@H](NC(=O)[C@@H](N)CS)C(=O)N1CCC[C@H]1C(=O)N[C@@H](CC(C)C)C(=O)N[C@@H](Cc1cnc[nH]1)C(=O)N[C@@H](CO)C(=O)N[C@@H](CCCNC(=N)N)C(=O)N[C@H](C(=O)N1CCC[C@H]1C(=O)N[C@@H](Cc1ccccc1)C(=O)N1CCC[C@H]1C(=O)O)C(C)C [cELA-11] | – | – | – | > 100 nM | > 100 nM | – | – |
| CSCC[C@H](NC(=O)[C@@H]1CSSC[C@H](NC(=O)[C@H](CC(N)=O)NC(=O)[C@H](Cc2c[nH]cn2)NC(=O)[C@H](CCCNC(=N)N)NC(=O)[C@H](Cc2c[nH]cn2)NC(=O)[C@H](CC(C)C)NC(=O)[C@H](CCCCN)NC(=O)[C@H](CCCNC(=N)N)NC(=O)[C@H](CCCNC(=N)N)NC(=O)[C@H](CC(C)C)NC(=O)[C@H](C)NC(=O)[C@H](CC(C)C)NC(=O)[C@H](CC(N)=O)NC(=O)[C@H](C)NC(=O)[C@@H]2CCCN2C(=O)[C@H](CCCNC(=N)N)NC(=O)[C@@H](N)CCC(N)=O)C(=O)N[C@@H](CO)C(=O)N[C@@H](Cc2c[nH]cn2)C(=O)N[C@@H](CCCNC(=N)N)C(=O)N[C@@H](CCCNC(=N)N)C(=O)N1)C(=O)N1CCC[C@H]1C(=O)N[C@@H](CC(C)C)C(=O)N[C@@H](Cc1c[nH]cn1)C(=O)N[C@@H](CO)C(=O)N[C@@H](CCCNC(=N)N)C(=O)N[C@H](C(=O)N1CCC[C@H]1C(=O)N[C@@H](Cc1ccccc1)C(=O)N1CCC[C@H]1C(=O)O)C(C)C [cELA-32a] (H-QRPANLALRRKLHRHNCSHRRCMPLHSRVPFP-OH; disulfide 17-22) | 0.26 ± 0.07 nM | 2.55 ± 0.11 nM | 1.81 ± 0.74 nM | – | – | – | – |
| CSCC[C@H](NC(=O)[C@H](CS)NC(=O)[C@H](CCCNC(=N)N)NC(=O)[C@H](CCCNC(=N)N)NC(=O)[C@H](Cc1c[nH]cn1)NC(=O)[C@H](CO)NC(=O)[C@H](CS)NC(=O)[C@H](CC(N)=O)NC(=O)[C@H](Cc1c[nH]cn1)NC(=O)[C@H](CCCNC(=N)N)NC(=O)[C@H](Cc1c[nH]cn1)NC(=O)[C@H](CC(C)C)NC(=O)[C@H](CCCCN)NC(=O)[C@H](CCCNC(=N)N)NC(=O)[C@H](CCCNC(=N)N)NC(=O)[C@H](CC(C)C)NC(=O)[C@H](C)NC(=O)[C@H](CC(C)C)NC(=O)[C@H](CC(N)=O)NC(=O)[C@H](C)NC(=O)[C@@H]1CCCN1C(=O)[C@H](CCCNC(=N)N)NC(=O)[C@@H](N)CCC(N)=O)C(=O)N1CCC[C@H]1C(=O)N[C@@H](CC(C)C)C(=O)N[C@@H](Cc1c[nH]cn1)C(=O)N[C@@H](CO)C(=O)N[C@@H](CCCNC(=N)N)C(=O)N[C@H](C(=O)N1CCC[C@H]1C(=O)N[C@@H](Cc1ccccc1)C(=O)N1CCC[C@H]1C(=O)O)C(C)C [cELA-32b] (H-QRPANLALRRKLHRHNCSHRRCMPLHSRVPFP-OH) | 0.28 ± 0.05 nM | 1.02 ± 0.23 nM | 1.68 ± 0.58 nM | – | – | – | – |
| CC(C)C[C@H](NC(=O)[C@@H]1CCCN1C(=O)[C@H](CC(C)C)NC(=O)[C@H](CS)NC(=O)[C@H](CCCNC(=N)N)NC(=O)[C@H](CCCCN)NC(=O)[C@H](CCCCN)NC(=O)[C@@H]1CCCN1C(=O)[C@H](CS)NC(=O)[C@H](CC(N)=O)NC(=O)[C@H](Cc1c[nH]cn1)NC(=O)[C@H](CCCNC(=N)N)NC(=O)[C@H](CCCNC(=N)N)NC(=O)[C@H](Cc1ccc(O)cc1)NC(=O)[C@@H](N)CCCCN)C(=O)N[C@@H](Cc1c[nH]cn1)C(=O)N[C@@H](CO)C(=O)N[C@@H](CCCNC(=N)N)C(=O)N[C@H](C(=O)N1CCC[C@H]1C(=O)N[C@@H](Cc1ccccc1)C(=O)N1CCC[C@H]1C(=O)O)C(C)C [zfELA-22] (H-KYRRHNCPKKRCLPLHSRVPFP-OH; N-terminus and C-terminus assumed) | – | 1.78 ± 1.17 nM | 1.43 ± 0.57 nM | – | – | > 100 nM | > 100 nM |
| LVRPRGARRGNVRRPGGWRRLRRPRPRLSHKGPMPF [cApelin-36] | 0.16 ± 0.06 nM | 0.9 ± 0.33 nM | 2.96 ± 1.26 nM | – | – | – | – |
